Columns and labels:
Type in all cases: in vivo
[1] = tested on: bile flow and bile solids; test: Chloretic activity: bile flow and bile solids after bile duct cannulation; settings: rats, 50 mg kg−1 i.d.; bile collected 0-5 hours; mean ± SE
Description: The liver, by producing bile, plays an important role in digestion. The presence of bile in the intestine is necessary to accomplish the digestion and absorption of fats as well as absorption of the fat-soluble vitamins—A, D, E & K. Bile is also an important vehicle of excretion. It removes many drugs, toxins, bile pigments and various inorganic substances either derived from the diet or synthesized by the body as cholesterol or as cholic acid.
Effect on the liver bile flow of test drug and that of vehicle is carried out after cannulating the bile duct in normal anaesthesied rats. Bile collected is from each animal from 0-5 hours (Klaassen, 1969, Donal et al. 1953). (Table 5)

[2] = tested on: Acetaminophen (APAP) induced hepatotoxicity; test: Paracetamol (Acetaminophen, APAP) induced hepatotoxicity after diethyl-ether inhalation; settings: mice, 50 mg kg−1 p.o., mean ± S.E.
Description: Paracetamol (APAP, Acetaminophen): It is a therapeutic agent widely used as analgesic/antipyretic drug. When taken in large doses it causes hepatic necrosis which leads to biochemical changes having clinical features similar to those of acute viral hepatitis in humans (Proudfoot and Wright, 1970). The similar effect is observed in animals. The toxic effect can be potentiated if it is given several hours after the anesthetic ether inhalation (Wells et. al., 1986). Liver injury is induced by injecting paracetamol (200 mg.kg^-1) interaperitoneally in normal saline (pH 9.4) six hour after inhalation of anesthetic ether (4 ml/4 min/6 animals) in a closed chamber. The control animals received the equal volume of vehicle. […] (Table 2) GPT and GOT: Pyruvate formed by transamination reaction is determined spectrophotometrically after reaction with 2,4-dinitrophenylhydrazine (Reitman and Frankel, 1957). ALP: p-nitrophenol formed in alkaline medium is measured spectrophotometrically using p-nitrophenyl phosphate as substrate (Walter and Schutt, 1974). Bilirubin : Total bilirubin is measured by diazotization reaction with NaNO2 (Malloy and Evelyn, 1937) Triglycerides: Triglycerides from serum are extracted with isopropanol and sopanified with KOH. The liberated glycerol is converted to formaldehyde by periodate and determined after reaction with acetyl acetone. […]

[3] = tested on: galactosamine, paracetamol and CCl4 as hepatotoxins; test: Earlier RRL Jammu study of hepatoprotective effect against galactosamine, paracetamol and CCl4; settings: synthesized constituent; silymarin as reference material

Structure (SMILES)	Bile flow (ml %), % Increase (as compared to normal) [1]	Bile solids (mg %), % Increase (as compared to normal) [1]	Hepatic Lipid Peroxidation [2]	hepatoprotective effect against galactosamine, paracetamol and CCl4 as hepatotoxins [3]
C[C@H](CCC(=O)O)[C@H]1CC[C@H]2[C@@H]3C(=O)C[C@@H]4CC(=O)CC[C@]4(C)[C@H]3CC(=O)[C@]12C [DHC, Dehydrocholic acid]	38.40 ± 2.76%	28.13 ± 3.89%	–	–
CCCCCCCC/C=C/CCCCCCCCCCCCCC(=O)O [TCA, trans-tetracos-15-enoic acid]	–	–	44.24 ± 2.22 n moles MDA/g liver	dose related hepatoprotective effect
